From patent US20240262842A1, “SMALL MOLECULE INHIBITORS OF KRAS G12C MUTANT” (Merck Sharp & Dohme LLC, priority 2021, published 2024)
Where two headings read alike, the source gives them in different places.

Experiments:
[1] = target: biotinylated KRAS G12C protein (GMP-PNP loaded) and GST-tagged Ras binding domain of c-RAF (Homo sapiens, UniProt P01116, C118S/C51S/C80L/G12C); assay: RAS:RAF-RBD binding assay (TR-FRET); settings: 30-minute incubation of compound with KRAS G12C before RAF-RBD; Table 4; read-out: IC50
[2] = target: T1, interaction between GMPPNP-bound recombinant K-Ras4B G12C mutant protein and cRAF RAS-binding domain (cRAF-RBD) (Homo sapiens, UniProt P01116, G12C); assay: Inhibitory activity on interaction between KRAS G12C and cRAF (Alpha technology); settings: GMPPNP-bound KRAS G12C incubated with compound 25° C. 1 hour, read-out: IC50
T1 construct: His-tag (N)
How it was run: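 His-tagged K-Ras4B G12C (aa 1-169), GMPPNP-loaded, preincubated with compound 1 h at 25° C in pH 7.5 Tris buffer with MgCl2, TCEP, Tween 20. cRAF-RBD (aa 50-132) and Alpha reagents then added for 1.5 h; Alpha signal normalised to DMSO (0%) and GDP-bound KRAS (100%); IC50 from dose titration.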

MIA PaCa-2 cells = assay: Growth inhibition activity on KRAS-G12C mutant cell line (CellTiter-Glo 3D); type: cell-based, human; settings: MIA PaCa-2, 3-day culture with compound
How it was run: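 MIA PaCa-2 cells in RPMI1640 with 10% FBS, U-bottom wells, cultured 1 day before compound (0.2% DMSO final), then 3 days at 37 °C, 5% CO2. Viability by CellTiter-Glo 3D luminescence; growth inhibition versus untreated wells gives IC50 (nM).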

[3] = Homo sapiens, MIA PaCa-2, 72 h, Table 3-1

Row | Compound | IC50 ([2]; Table 2-1) [nM] | IC50 (MIA PaCa-2 cells; [3]) [nM] | also measured
1 | Cc1nc2c3c(c(C(F)(F)F)cc2n1C)-c1cccn2c(C(=O)c4cc(F)c(NC(=O)/C(F)=C/CN[C@@H]5CCOC5)c(F)c4)cc(c12)CCO3 (atropisomer, axis not shown) [Example 252, (R,Z)-N-(4-(9,10-dimethyl-7-(trifluoromethyl)-13,14-dihydro-9H-imidazo[4″,5″:5′,6′]benzo[1′,2′:2,3]oxocino[4,5,6-hi]indolizine-2-carbonyl)-2,6-difluorophenyl)-2-fluoro-4-((tetrahydrofuran-3-yl)amino)but-2-enamide] | – | – | IC50 [1]: 25.7 nM
2 | COCc1nc2c3c(c(OC)cc2n1C)-c1cccn2c(C(=O)c4cc(F)c(NC(=O)/C=C/CNCC5(F)CC5)c(F)c4)cc(c12)CCN3C (atropisomer, axis not shown) [Example 287, (E)-N-(2,6-difluoro-4-(7-methoxy-10-(methoxymethyl)-9,12-dimethyl-9,12,13,14-tetrahydroimidazo[4″,5″:5′,6′]benzo[1′,2′:2,3]azocino[4,5,6-hi]indolizine-2-carbonyl)phenyl)-4-(((1-fluorocyclopropyl)methyl)amino)but-2-enamide] | – | – | IC50 [1]: 16.6 nM
3 | COCc1nc2c3c(c(OC)cc2n1C)-c1cccn2c(C(=O)c4cc(F)c(NC(=O)/C=C/[C@@H]5C[C@@H](F)CN5)c(F)c4)cc(c12)CCN3C (atropisomer, axis not shown) [Example 293, (E)-N-(2,6-difluoro-4-(7-methoxy-10-(methoxymethyl)-9,12-dimethyl-9,12,13,14-tetrahydroimidazo[4″,5″:5′,6′]benzo[1′,2′:2,3]azocino[4,5,6-hi]indolizine-2-carbonyl)phenyl)-3-((2S,4R)-4-fluoropyrrolidin-2-yl)acrylamide] | – | – | IC50 [1]: 16 nM
4 | Cc1nc2c3c(c(C(F)(F)F)cc2n1C)-c1cccn2c(C(=O)c4cc(F)c(NC(=O)/C(F)=C/CNC5(C)CCOCC5)c(F)c4)cc(c12)CCO3 (atropisomer, axis not shown) [Example 296, (Z)-N-(4-(9,10-dimethyl-7-(trifluoromethyl)-13,14-dihydro-9H-imidazo[4″,5″:5′,6′]benzo[1′,2′:2,3]oxocino[4,5,6-hi]indolizine-2-carbonyl)-2,6-difluorophenyl)-2-fluoro-4-((4-methyltetrahydro-2H-pyran-4-yl)amino)but-2-enamide] | – | – | IC50 [1]: 14.8 nM
5 | Cn1cnc2c3c(c(C(F)(F)F)cc21)-c1cccn2c(C(=O)c4cc(F)c(NC(=O)/C=C/CN5CC6COCC5C6)c(F)c4)cc(c12)CCO3 (centres unmarked) [Example 230, (E)-4-(3-oxa-6-azabicyclo-[3.2.1]octan-6-yl)-N-(2,6-difluoro-4-(9-methyl-7-(trifluoromethyl)-13,14-dihydro-9H-imidazo-[4″,5″:5′,6′]benzo[1′,2′: 2,3]oxocino[4,5,6-hi]-indolizine-2-carbonyl)-phenyl)but-2-enamide] | 20.1 | 14.4 | –
6 | CC1(NC/C=C/C(=O)Nc2c(F)cc(C(=O)c3cc4c5c(cccn35)-c3c(cc(N5CCOC5=O)cc3C(F)(F)F)OCC4)cc2F)CC1 [Example 232, (E)-N-(2,6-difluoro-4-(7-(2-oxooxazolidin-3-yl)-9-(trifluoromethyl)-3.4-dihydrobenzo[2,3]oxo-cino-[4,5,6-hi]indolizine-1-carbonyl)phenyl)-4-((1-methylcyclopropyl)amino)-but-2-enamide] | 49.7 | 18 | –
7 | CC1(NC/C=C/C(=O)Nc2c(F)cc(C(=O)c3cc4c5c(cccn35)-c3c(cc(N5CCNC5=O)cc3C(F)(F)F)OCC4)cc2F)CC1 [Example 233, (E)-N-(2,6-difluoro-4-(7-(2-oxoimidazolidin-1-yl)-9-(trifluoromethyl)-3,4-dihydrobenzo[2,3]oxo-cino[4,5,6-hi]indolizine-1-carbonyl)phenyl)-4-((1-methylcyclopropyl)-amino)but-2-enamide] | 52.6 | 14 | –
8 | Cn1cnc2c3c(c(C(F)(F)F)cc21)-c1cccn2c(C(=O)c4cc(F)c(NC(=O)/C=C/CN5CC6CCC5C6)c(F)c4)cc(c12)CCO3 (centres unmarked) [Example 234, (E)-4-(2-azabicyclo-[2.2.1]heptan-2-yl)-N-(2,6-difluoro-4-(9-meth-yl-7-(trifluoromethyl)-13,14-dihydro-9H-imidazo-[4″,5″:5′,6′]-benzo[1′,2′:2,3]oxocino-[4,5,6-hi]indolizine-2-carbonyl)phenyl)but-2-enamide] | 20.5 | 7.08 | –
9 | Cn1cnc2c3c(c(C(F)(F)F)cc21)-c1cccn2c(C(=O)c4cc(F)c(NC(=O)/C=C/CN5C6CCCC5CC6)c(F)c4)cc(c12)CCO3 [Example 235, (E)-4-((1R,5S)-8-azabicyclo[3.2.1]octan-8-yl)-N-(2,6-difluoro-4-(9-methyl-7-(trifluoro-methyl)-13,14-dihydro-9H-imidazo[4″,5″:5′,6′]-benzo[1′,2′:2,3]oxocino-[4,5,6-hi]indolizine-2-carbonyl)phenyl)but-2-enamide] | 21.9 | 17 | –
10 | Cn1cnc2c3c(c(C(F)(F)F)cc21)-c1cccn2c(C(=O)c4cc(F)c(NC(=O)/C=C/CN5C6CCC5CC6)c(F)c4)cc(c12)CCO3 [Example 236, (E)-4-(7-azabicyclo[2.2.1]-heptan-7-yl)-N-(2,6-difluoro-4-(9-methyl-7-(trifluoromethyl)-13,14-dihydro-9H-imidazo-[4″,5″:5′,6′]benzo[1′,2′: 2,3]oxocino[4,5,6-hi]-indolizine-2-carbonyl)-phenyl)but-2-enamide] | 16.5 | 4.03 | –
11 | COCCn1c(C)nc2c3c(c(OC)cc21)-c1cccn2c(C(=O)c4cc(F)c(NC(=O)C=CCNC5(C)CC5)c(F)c4)cc(c12)CCS3 [Example 240, (E)-N-(2,6-difluoro-4-(7-methoxy-9-(2-methoxyethyl)-10-methyl-13,14-dihydro-9H-imidazo[4″,5″:5′,6′]benzo[1′,2′:2,3]thiocino[4,5,6-hi]indolizine-2-carbonyl)phenyl)-4-((1-methylcyclopropyl)amino)but-2-enamide] | 8.93 | 14.5 | –
12 | COCCn1c(C)nc2c3c(c(OC)cc21)-c1cccn2c(C(=O)c4cc(F)c(NC(=O)/C=C/CNC5(C)CC5)c(F)c4)cc(c12)CC[S+]3[O-] (centres unmarked) [Example 241] | 31 | 877 | –
13 | COCCn1c(COC)[n+]([O-])c2c3c(c(OC)cc21)-c1cccn2c(C(=O)c4cc(F)c(NC(=O)/C=C/CNC5(C)CC5)c(F)c4)cc(c12)CCN3C [Example 243, (E)-2-(3,5-difluoro-4-(4-((1-methylcyclopropyl)-amino)but-2-enamido)-benzoyl)-7-methoxy-9-(2-methoxyethyl)-10-(methoxymethyl)-12-methyl-9,12,13,14-tetra-hydroimidazo[4″,5″:5′,6′]-benzo[1′,2′:2,3]azocino-[4,5,6-hi]indolizine 11-oxide] | 83.2 | 91.8 | –
14 | COc1cc2c(nc(C)n2C)c2c1-c1cccn3c(C(=O)c4cc(F)c(NC(=O)/C=C/CNC5(C)CCCC5)c(F)c4)cc(c13)CCN2C [Example 245, (E)-N-(2,6-difluoro-4-(7-methoxy-9,10,12-trimeth-yl-9,12,13,14-tetrahydro-imidazo[4″,5″:5′,6′]benzo-[1′,2′:2,3]azocino[4,5,6-hi]indolizine-2-carbonyl)-phenyl)-4-((1-methyl-cyclopentyl)amino)but-2-enamide] | 33.1 | 25.4 | –
15 | COCCn1c(C)nc2c3c(c(OC)cc21)-c1cccn2c(C(=O)c4cc(F)c(NC(=O)/C=C/CNC5(C)CCCC5)c(F)c4)cc(c12)CCO3 [Example 246, (E)-N-(2,6-difluoro-4-(7-methoxy-9-(2-methoxyethyl)-10-methyl-13,14-dihydro-9H-imidazo[4″,5″:5′,6′]benzo[1′,2′:2,3]oxocino[4,5,6-hi]indolizine-2-carbonyl)phenyl)-4-((1-methylcyclopentyl)amino)but-2-enamide] | 13.6 | 17.2 | –
16 | CN1CCc2cc(C(=O)c3cc(F)c(NC(=O)/C=C/CNC4(C)CSC4)c(F)c3)n3cccc(c23)-c2c(C(F)(F)F)cc3c(ncn3C)c21 [Example 249] | 27.5 | 28.6 | –
17 | (E)-N-(2,6-difluoro-4-(10-(methoxymethyl)-9,13-dimethyl-12-oxo-7-(trifluoromethyl)-9,12,13,14-tetrahydroimidazo[4″,5″:3′,4′]benzo[1′,2′:6,7]azocino[5,4,3-hi]indolizine-2-carbonyl)phenyl)-4-((3-methyloxetan-3-yl)amino)but-2-enamide [Example 152] | 89.3 | – | IC50 (MIA PaCa-2 cells; Table 3-1): 927 nM
18 | (E)-N-(2,6-difluoro-4-((S)-6,8,9,12-tetramethyl-12,13-dihydro-8H-imidazo[4″,5″:3′,4′]benzo[1′,2′:7,8][1,4]oxazocino[6,5,4-hi]indole-2-carbonyl)pheny 1)-4-(((1,4r)-4-methoxycyclohexyl)amino)but-2-enamide [Example 20] | – | – | IC50 ([2]; Table 2): 24 nM; IC50 (MIA PaCa-2 cells; Table 3): 49 nM
